Publication PMC6278394, “Screening of Angiotensin-I Converting Enzyme Inhibitory Peptides Derived from Caulerpa lentillifera” (Molecules, 2018)
Ends that are not written are not given here.

Key:
[1] = target: T1, ACE (EC 3.4.15.1) from rabbit lungs (Oryctolagus cuniculus, UniProt P12822); assay: pre-incubation experiment of ACEI peptide with ACE (stability towards ACE, inhibitor type); assay type: biochemical; settings: peptide 100 µM; for ACE inhibition activity without pre-incubation: before pre-incubation with ACE; for ACE inhibition activity after pre-incubation: pre-incubated with ACE (0.05 mU/µL) 3 h at 37 °C, then HHL 2.5 mM 1 h at 37 °C
T1 construct: ACE (EC 3.4.15.1) from rabbit lungs; purchased Sigma Chemical Co. (St. Louis, MO, USA); host or cells: rabbit lung tissue
T1 sequence (P12822 34-1310): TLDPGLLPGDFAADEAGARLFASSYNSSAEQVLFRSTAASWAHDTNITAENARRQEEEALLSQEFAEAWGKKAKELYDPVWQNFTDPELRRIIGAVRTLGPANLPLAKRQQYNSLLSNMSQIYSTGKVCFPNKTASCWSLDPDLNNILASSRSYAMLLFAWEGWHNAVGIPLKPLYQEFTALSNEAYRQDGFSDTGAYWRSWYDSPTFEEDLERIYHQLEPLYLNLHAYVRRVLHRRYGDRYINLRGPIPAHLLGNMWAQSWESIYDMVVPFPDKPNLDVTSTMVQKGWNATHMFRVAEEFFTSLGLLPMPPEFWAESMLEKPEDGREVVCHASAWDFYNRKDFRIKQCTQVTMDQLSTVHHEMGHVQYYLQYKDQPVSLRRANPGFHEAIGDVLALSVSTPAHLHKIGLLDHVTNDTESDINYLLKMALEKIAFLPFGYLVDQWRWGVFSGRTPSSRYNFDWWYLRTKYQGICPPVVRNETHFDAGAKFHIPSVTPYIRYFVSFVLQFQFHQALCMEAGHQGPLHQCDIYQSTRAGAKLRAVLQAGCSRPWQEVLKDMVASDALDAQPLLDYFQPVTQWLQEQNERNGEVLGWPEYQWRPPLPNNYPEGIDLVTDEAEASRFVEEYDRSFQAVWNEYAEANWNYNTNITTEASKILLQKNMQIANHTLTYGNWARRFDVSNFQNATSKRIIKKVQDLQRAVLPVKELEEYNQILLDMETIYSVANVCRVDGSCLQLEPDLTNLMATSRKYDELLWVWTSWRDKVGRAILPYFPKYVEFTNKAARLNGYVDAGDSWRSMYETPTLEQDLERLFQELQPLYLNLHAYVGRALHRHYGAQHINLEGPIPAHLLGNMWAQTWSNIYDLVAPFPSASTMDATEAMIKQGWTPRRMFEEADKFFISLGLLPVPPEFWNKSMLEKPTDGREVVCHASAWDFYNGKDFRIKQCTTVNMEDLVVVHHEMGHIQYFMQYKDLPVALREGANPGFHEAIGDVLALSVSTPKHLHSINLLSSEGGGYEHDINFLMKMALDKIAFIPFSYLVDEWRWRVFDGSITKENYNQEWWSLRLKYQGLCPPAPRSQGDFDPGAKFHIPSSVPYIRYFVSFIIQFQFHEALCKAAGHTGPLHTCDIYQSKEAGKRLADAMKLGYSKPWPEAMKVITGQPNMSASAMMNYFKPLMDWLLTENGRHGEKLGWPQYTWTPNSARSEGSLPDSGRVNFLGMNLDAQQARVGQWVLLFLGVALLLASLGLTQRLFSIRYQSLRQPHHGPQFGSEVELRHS
Procedure: Since ACE is a dipeptidyl-carboxypeptidase, whether the ACEI peptides will be cleaved by ACE is a critical issue for an in vivo application. Pre-incubation of ACEI peptides with ACE before adding substrate is often used to monitor the reactivity between ACE and the ACEI peptide.
The stability of ACEI peptides towards peptidase ACE was determined according to the method described by Ruiz et al.. Briefly, ACEI peptide (at 100 µM) in 10 µL of deionized water was incubated with 20 µL of ACE (0.05 mU/µL) for 3 h at 37 °C. After that, 30 µL of 2.5 mM HHL was added and the reaction mixture was incubated at 37 °C for 1 h. The reaction was stopped by adding 60 µL 1 N HCl, and the inhibition degree of the peptide was calculated as in Section 3.5.

[2] = target: T1, ACE (EC 3.4.15.1) from rabbit lungs; assay: in vitro ACE inhibitory assay (HHL substrate, hippuric acid by RP-HPLC); assay type: biochemical; settings: synthetic peptide; HHL 2.5 mM, borate buffer pH 8.3, 37 °C, HPLC read-out at 228 nm; triplicate, nonlinear regression (Graphpad Prism 6.0)
Procedure: The ACEI activity assay was performed according to a previous report with a slight modification. For each assay, 30 µL 2.5 mM Hippuryl-L-histidyl-L-leucine (HHL) was used as a substrate and added by 10 µL of testing sample (peptides) at a certain concentration in 200 mM borate buffer containing 300 mM NaCl (adjusted to pH 8.3). Blank sample using 10 µL of borate buffer and was added by the same substrate. The positive control was 10 µL of 10 µM captopril. All samples were pre-incubated at 37 °C for 5 min. Subsequently, 20 µL of ACE (0.05 mU/µL) in 200 mM borate buffer was added to the blank sample, positive control and testing sample. The reaction was incubated statically at 37 °C for 30 min and then incubated thermostatically using shaker incubation (200 rpm) at 37 °C for 30 min. […] The HHL and ACE’s hydrolyzed product, hippuric acid (HA), were quantitatively analyzed using HPLC equipped with a C18 column. […] The result of HA was detected by UV detector at 228 nm. The ACE inhibition (%) was determined according to the following equation:ACE Inhibition (%) = [1 − (ΔAInhibitor/ΔABlank)] × 100
Here, ΔAInhibitor and ΔABlank were the peak areas of HA in testing and blank samples, respectively. […] The IC50 was determined using Graphpad Prism 6.0 (GraphPad Software, Inc., La Jolla, CA, USA) by a nonlinear regression of ACE inhibition result (%) caused by different concentrations of inhibitor.

Substance	ACE inhibition activity without pre-incubation [1] [%]	ACE inhibition activity after pre-incubation [1] [%]	IC50 [2] [µM]	decrease of inhibition activity after pre-incubation ([1]; 3 h pre-incubation with ACE at 37 °C)
FDGIP [FP-5]	78.89	76.47	58.9 ± 0.68	–
AIDPVRA [AA-7]	68.07	57.89	65.8 ± 0.92	about 10%
